{"source": "patent US20250388604A1", "about": "“Compounds and Their Use as PDE4 Activators” (Mironid Limited, priority 2022, published 2025)"}
{"test_system": "m-IMCD3 cells", "test": "Inhibition of PGE2-stimulated in vitro cyst formation in m-IMCD3 cells", "format": "cell-based, mouse", "settings": "Mus musculus, mIMCD3, 144 h, 3 μM; mean cyst area, 100% for (DMSO + PGE2) and 0% for DMSO control; 6 days of culture; read-out: % Cyst area after incubation with 3 μM test compound", "description": "(§1) HEK 293 and MDCK cells (Public Health England, Cell Culture Collections) were maintained in Dulbecco's Modified Eagle's Medium (DMEM) supplemented with 10% (v/v) fetal bovine serum (FBS) (Seralab), 2 mM L-glutamine and 100 U/mL penicillin streptomycin cocktail (ThermoFisher); termed complete media. Clonal HEK 293 cell lines were maintained in complete media supplemented with 0.6 mg/ml G418 (Enzo Life Sciences). Mouse inner medullary collecting duct (m-IMCD3) cells [American Type Culture Collection (ATCC)] were maintained in media consisting of DMEM/Hams F-12 50/50 Mix (DMEM F12; Corning) supplemented with penicillin streptomycin cocktail (100 U/mL) and FBS (10% v/v) (DMEM F12-10% FBS).\n(§2) The mouse Inner Medullary Collecting Duct cell line (m-IMCD3) spontaneously forms cystic spheroids in 3D culture with a Type 1 collagen/Matrigel extracellular matrix. This process can be stimulated with agents which raise intracellular cAMP and is used as an in vitro model for the formation of cystic structures in the kidneys of patients with ADPKD.\n(§3) Rat Collagen I (Fisher Scientific) is prepared on ice by neutralising with 1M NaOH and diluting with a 2× volume of DMEM/F12+10% FBS. This is mixed 1:1.1 with ice cold Matrigel (Corning) for coating plates (coating mix), and 1:0.93 with Matrigel for cell plating (plating mix).\n(§4) The assay is conducted in the wells of a 96-well plate culture dish using a total volume of 130 μL of collagen/Matrigel/DMEM F12-10% FBS suspension in growth media for each matrix plug per individual well. Initially, 30 μL of collagen/Matrigel/DMEM F12-10% FBS (coating mix) is added into the well of a 96 well plate and the collagen is set to a gel by incubating at 37° C. for at least 15 minutes. A second layer of 100 μL collagen/Matrigel suspension (plating mix) containing m-IMCD3 cells (2.75×10^6 m-IMCD3 cells per 96-well plate) is layered over the coating mix and the collagen/Matrigel/cell mix again set to a gel by incubating at 37° C. Cell cultures are maintained at 37° C. in an atmosphere of 5% CO2, 95% air.\n(§5) Between 18 and 24 h after plating, test compound(s) as DMSO stock solutions [0.1% (v/v) final DMSO concentration] and PGE2 (100 nM final concentration) in DMEM F12-10% FBS are added in quadruplicate wells per condition. Media, together with the test compound and PGE2 are replenished after 2 or 3 days. After 6 days of culture z stack images of the wells are captured using the Nikon Eclipse Ti2-E microscope. Nikon General Analysis software is used to measure the following parameters in each well: the mean cyst area, the number of cysts, and the total cyst area.\n(§6) PDE4 long form activators inhibited in vitro cyst formation in m-IMCD3 cells. Data are shown in Table 4 as mean cyst area (%), compared to 100% for (DMSO+PGE2) and 0% for DMSO control.", "units": {"activity at 3 µM": "%"}}
{"smiles": "COc1cc(C)ccc1C(=O)N1CCc2nc(N3C4CCC3CNC4)sc2C1", "note": "[Example 219, (2-(3,8-diazabicyclo[3.2.1]octan-8-yl)-6,7-dihydrothiazolo[5,4-c]pyridin-5(4H)-yl)(2-methoxy-4-methylphenyl)methanone]", "activity at 3 µM": 11}
{"smiles": "O=C(c1cc2ccccc2cn1)N1CCc2nc(N3C4CCC3CNC4)sc2C1", "note": "[Example 192, (2-(3,8-diazabicyclo[3.2.1]octan-8-yl)-6,7-dihydrothiazolo[5,4-c]pyridin-5(4H)-yl)(isoquinolin-3-yl)methanone]", "activity at 3 µM": 1}
{"smiles": "O=C(c1ccccc1OC(F)F)N1CCc2nc(N3C4CCC3CNC4)sc2C1", "note": "[Example 203, (2-(3,8-diazabicyclo[3.2.1]octan-8-yl)-6,7-dihydrothiazolo[5,4-c]pyridin-5(4H)-yl)(2-(difluoromethoxy)phenyl)methanone]", "activity at 3 µM": -1}
{"smiles": "Cc1ccccc1C(=O)N1CCc2nc(N3C4CCC3CNC4)sc2C1", "note": "[Example 194, (2-(3,8-diazabicyclo[3.2.1]octan-8-yl)-6,7-dihydrothiazolo[5,4-c]pyridin-5(4H)-yl)(o-tolyl)methanone]", "activity at 3 µM": 1}
{"smiles": "O=C(c1nc2ccccc2o1)N1CCc2nc(N3C4CCC3CNC4)sc2C1", "note": "[Example 190, (2-(3,8-diazabicyclo[3.2.1]octan-8-yl)-6,7-dihydrothiazolo[5,4-c]pyridin-5(4H)-yl)(benzo[d]oxazol-2-yl)methanone]", "activity at 3 µM": 1}
{"smiles": "COCc1ccccc1C(=O)N1CCc2nc(N3C4CCC3CNC4)sc2C1", "note": "[Example 214, (2-(3,8-diazabicyclo[3.2.1]octan-8-yl)-6,7-dihydrothiazolo[5,4-c]pyridin-5(4H)-yl)(2-(methoxymethyl)phenyl)methanone]", "activity at 3 µM": 54}
{"smiles": "O=C(COc1ccccc1OCCO)N1CCc2nc(N3C4CCC3CNC4)sc2C1", "note": "[Example 250, 1-(2-(3,8-diazabicyclo[3.2.1]octan-8-yl)-6,7-dihydrothiazolo[5,4-c]pyridin-5(4H)-yl)-2-(2-(2-hydroxyethoxy)phenoxy)ethan-1-one]", "activity at 3 µM": 17}
{"smiles": "N#Cc1ccccc1OCC(=O)N1CCc2nc(N3C4CCC3CNC4)sc2C1", "note": "[Example 167, 2-(2-(2-(3,8-diazabicyclo[3.2.1]octan-8-yl)-6,7-dihydrothiazolo[5,4-c]pyridin-5(4H)-yl)-2-oxoethoxy)benzonitrile]", "activity at 3 µM": 19}
{"smiles": "O=C(c1ccccc1)N1CCc2nc(N3C4CCC3CNC4)sc2C1", "note": "[Example 193, (2-(3,8-diazabicyclo[3.2.1]octan-8-yl)-6,7-dihydrothiazolo[5,4-c]pyridin-5(4H)-yl)(phenyl)methanone]", "activity at 3 µM": -1}
{"smiles": "O=C(c1cc2ccccc2o1)N1CCc2nc(N3C4CCC3CNC4)sc2C1", "note": "[Example 185, (2-(3,8-diazabicyclo[3.2.1]octan-8-yl)-6,7-dihydrothiazolo[5,4-c]pyridin-5(4H)-yl)(benzofuran-2-yl)methanone]", "activity at 3 µM": -2}
{"smiles": "COc1ccccc1C(=O)N1CCc2nc(N3C4CCC3CNC4)sc2C1", "note": "[Example 197, (2-(3,8-diazabicyclo[3.2.1]octan-8-yl)-6,7-dihydrothiazolo[5,4-c]pyridin-5(4H)-yl)(2-methoxyphenyl)methanone]", "activity at 3 µM": 4}
{"smiles": "Cc1ccc(-c2nc3c(s2)CN(C(=O)CC2CCCC2)CC3)cn1", "note": "[Example 305, 2-cyclopentyl-1-(2-(6-methylpyridin-3-yl)-6,7-dihydrothiazolo[5,4-c]pyridin-5(4H)-yl)ethan-1-one]", "activity at 3 µM": 26}
{"smiles": "Cc1ccc(C(=O)N2CCc3nc(N4C5CCC4CNC5)sc3C2)c(C#N)c1", "note": "[Example 238, 2-(2-(3,8-diazabicyclo[3.2.1]octan-8-yl)-4,5,6,7-tetrahydrothiazolo[5,4-c]pyridine-5-carbonyl)-5-methylbenzonitrile]", "activity at 3 µM": 5}
{"smiles": "CC(O)(C(=O)N1CCc2nc(N3C4CCC3CNC4)sc2C1)C1CCCC1", "note": "(single isomer, unassigned) [Example 254, 1-(2-(3,8-diazabicyclo[3.2.1]octan-8-yl)-6,7-dihydrothiazolo[5,4-c]pyridin-5(4H)-yl)-2-cyclopentyl-2-hydroxypropan-1-one]", "activity at 3 µM": -5}
{"smiles": "O=C(c1ccc(C(F)F)nc1)N1CCc2nc(N3C4CCC3CNC4)sc2C1", "note": "[Example 243, (2-(3,8-diazabicyclo[3.2.1]octan-8-yl)-6,7-dihydrothiazolo[5,4-c]pyridin-5(4H)-yl)(6-(difluoromethyl)pyridin-3-yl)methanone]", "activity at 3 µM": 10}
{"smiles": "COc1cc(F)cc(C#N)c1OCC(=O)N1CCc2nc(N3C4CCC3CNC4)sc2C1", "note": "[Example 253, 2-(2-(2-(3,8-diazabicyclo[3.2.1]octan-8-yl)-6,7-dihydrothiazolo[5,4-c]pyridin-5(4H)-yl)-2-oxoethoxy)-5-fluoro-3-methoxybenzonitrile]", "activity at 3 µM": -4}
{"test_system": "m-IMCD3 cells", "test": "Inhibition of PGE2-stimulated in vitro cyst formation in m-IMCD3 cells", "format": "cell-based, mouse", "settings": "Mus musculus, mIMCD3, 144 h, 10 μM; mean cyst area, 100% for (DMSO + PGE2) and 0% for DMSO control; 6 days of culture; read-out: % Cyst area after incubation with 10 μM test compound", "description": "as §1, §2, §3, §4, §5, §6", "units": {"activity at 10 µM": "%"}}
{"smiles": "CC[C@@H](C)C(=O)N1CCc2nc(N3C4CCC3CNC4)sc2C1", "note": "[Example 16, (2R)-1-(2-(3,8-diazabicyclo[3.2.1]octan-8-yl)-6,7-dihydrothiazolo[5,4-c]pyridin-5(4H)-yl)-2-methylbutan-1-one]", "activity at 10 µM": -2}
{"smiles": "O=C(C(F)C1CCCC1)N1CCc2nc(N3C4CCC3CNC4)sc2C1", "note": "(stereo not shown) [Example 34, 1-(2-(3,8-diazabicyclo[3.2.1]octan-8-yl)-6,7-dihydrothiazolo[5,4-c]pyridin-5(4H)-yl)-2-cyclopentyl-2-fluoroethan-1-one]", "activity at 10 µM": -2}
{"smiles": "O=C(CC1CCC1)N1CCc2nc(N3C4CCC3CNC4)sc2C1", "note": "[Example 11, 1-(2-(3,8-diazabicyclo[3.2.1]octan-8-yl)-6,7-dihydrothiazolo[5,4-c]pyridin-5(4H)-yl)-2-cyclobutylethan-1-one]", "activity at 10 µM": -3}
{"smiles": "CC(Oc1ccccc1)C(=O)N1CCc2nc(N3C4CCC3CNC4)sc2C1", "note": "(stereo not shown) [Example 23, 1-(2-(3,8-diazabicyclo[3.2.1]octan-8-yl)-6,7-dihydrothiazolo[5,4-c]pyridin-5(4H)-yl)-2-phenoxypropan-1-one]", "activity at 10 µM": 0}
{"smiles": "O=C(N1CCc2nc(N3C4CCC3CNC4)sc2C1)C1(F)CCCC1", "note": "[Example 151, (2-(3,8-diazabicyclo[3.2.1]octan-8-yl)-6,7-dihydrothiazolo[5,4-c]pyridin-5(4H)-yl)(1-fluorocyclopentyl)methanone]", "activity at 10 µM": 5}
{"smiles": "O=C(NC1CCCCC1)N1CCc2nc(N3C4CCC3CNC4)sc2C1", "note": "[Example 52]", "activity at 10 µM": -6}
{"smiles": "O=C(CC1CCCC1)N1CCc2nc(N3CCN[C@H](CO)C3)sc2C1", "note": "[Example 116, (S)-2-cyclopentyl-1-(2-(3-(hydroxymethyl)piperazin-1-yl)-6,7-dihydrothiazolo[5,4-c]pyridin-5(4H)-yl)ethan-1-one]", "activity at 10 µM": 55}
{"smiles": "N#CC(C(=O)N1CCc2nc(N3C4CCC3CNC4)sc2C1)C1CCCC1", "note": "(stereo not shown) [Example 152, 3-(2-(3,8-diazabicyclo[3.2.1]octan-8-yl)-6,7-dihydrothiazolo[5,4-c]pyridin-5(4H)-yl)-2-cyclopentyl-3-oxopropanenitrile]", "activity at 10 µM": 4}
{"smiles": "CC1(C)CCN(C(=O)N2CCc3nc(N4C5CCC4CNC5)sc3C2)C1", "note": "[Example 121, (2-(3,8-diazabicyclo[3.2.1]octan-8-yl)-6,7-dihydrothiazolo[5,4-c]pyridin-5(4H)-yl)(3,3-dimethylpyrrolidin-1-yl)methanone]", "activity at 10 µM": 0}
{"smiles": "O=C(CC1CCC(F)(F)CC1)N1CCn2nc(N3C4CCC3CNC4)cc2C1", "note": "[Example 71, 1-(2-(3,8-diazabicyclo[3.2.1]octan-8-yl)-6,7-dihydropyrazolo[1,5-a]pyrazin-5(4H)-yl)-2-(4,4-difluorocyclohexyl)ethan-1-one]", "activity at 10 µM": -3}
{"smiles": "CN1CC2CCC(C1)N2c1nc2c(s1)CN(C(=O)NC1CCC(F)(F)CC1)CC2", "note": "[Example 77, N-(4,4-difluorocyclohexyl)-2-(3-methyl-3,8-diazabicyclo[3.2.1]octan-8-yl)-6,7-dihydrothiazolo[5,4-c]pyridine-5(4H)-carboxamide]", "activity at 10 µM": 1}
{"smiles": "COC1(CC(=O)N2CCc3nc(N4C5CCC4CNC5)sc3C2)CCCC1", "note": "[Example 134, 1-(2-(3,8-diazabicyclo[3.2.1]octan-8-yl)-6,7-dihydrothiazolo[5,4-c]pyridin-5(4H)-yl)-2-(1-methoxycyclopentyl)ethan-1-one]", "activity at 10 µM": -4}
